According to ChEMBL document CHEMBL3860097, “Synthesis and biological evaluation of C-ring truncated deguelin derivatives as heat shock protein 90 (HSP90) inhibitors” (2016):
The source made the active and inactive calls. The rule behind the calls is not given here.

Key:
[1] = biological target: T1, Heat shock protein HSP90 (Homo sapiens) (UniProt P07900+P08238); experiment: Inhibition of HSP90 in human H1299 cells assessed as suppression of HIF-1alpha at 100 nM preincubated for 72 hrs followed by incubation under hypoxic condition for 12 hrs by Western blot method relative to control; assay type: cell-based
Homo sapiens [2] = species on record: Homo sapiens; experiment: Antiangiogenic activity in HRMEC assessed as inhibition of VEGF-induced cell migration under hypoxic condition at 100 nM after 4 hrs by hematoxylin and eosin staining-based phase-contrast microscopy; assay type: functional
Homo sapiens [3] = species on record: Homo sapiens; experiment: Antiangiogenic activity in HRMEC assessed as inhibition of VEGF-induced cell proliferation under hypoxic condition by measuring [3H]-thymidine incorporation at 100 nM preincubated for 24 hrs followed by [3H]-thymidine addition measured after 6 hrs by liquid scintillation counter; assay type: functional
[4] = biological target: T1, Heat shock protein HSP90 (Homo sapiens); experiment: Inhibition of HSP90 in human H1299 cells assessed as suppression of HIF-1alpha at 10 nM preincubated for 72 hrs followed by incubation under hypoxic condition for 12 hrs by Western blot method relative to control; assay type: cell-based
[5] = biological target: T1, Heat shock protein HSP90 (Homo sapiens); experiment: Inhibition of HSP90 in human H1299 cells assessed as suppression of HIF-1alpha preincubated for 72 hrs followed by incubation under hypoxic condition for 12 hrs by Western blot method; assay type: cell-based
[6] = Cytotoxicity against human H1299 cells assessed as decrease in cell viability at 10 uM by MTT assay relative to control; assay type: functional, NCI-H1299
NCI-H1299 = experiment: Cytotoxicity against human H1299 cells assessed as decrease in cell viability by MTT assay; assay type: functional, cell-based

Row | Structure (SMILES) | inhibition [1] [%] | other results
1 | COc1cc2nccc(C(OC(=O)C3CC3)c3ccc4ncccc4c3)c2cc1OC (centres undefined) | 115 | –
2 | COc1cc2nccc(C(O)c3ccc4c(ccn4C)c3)c2cc1OC (centres undefined) | 102 | –
3 | COc1cc2nccc(C(NC(C)=O)c3ccc4c(c3OC)C=CC(C)(C)O4)c2cc1OC (centres undefined) | 72.9 | –
4 | COc1cc2nccc(C(O)c3ccc4c(c3OC)C=CC(C)(C)O4)c2cc1OC (centres undefined) | 71.5 | –
5 | COc1cc2cc(C(=O)c3ccc4c(c3OC)C=CC(C)(C)O4)oc2cc1OC | 54.1 | –
6 | COc1cc2cc(C(=O)c3ccc4ncccc4c3)oc2cc1OC | 40.6 | –
7 | CC(C)c1cc(-c2n[nH]c(=O)n2-c2ccc3c(ccn3C)c2)c(O)cc1O | – | inhibition (Homo sapiens [2]): Active; inhibition (Homo sapiens [3]): Active
8 | COc1cc2nccc(C(=O)c3ccc4c(c3OC)C=CC(C)(C)O4)c2cc1OC | 70.5 | –
9 | COc1cc2ncnc(C(OC(C)=O)c3ccc4c(c3OC)C=CC(C)(C)O4)c2cc1OC (centres undefined) | 88.6 | –
10 | CCCC(=O)OC(c1ccc2c(c1OC)C=CC(C)(C)O2)c1ccnc2cc(OC)c(OC)cc12 (centres undefined) | 90 | –
11 | COc1cc2ccc(C(OC(C)=O)c3ccc4c(c3OC)C=CC(C)(C)O4)nc2cc1OC (centres undefined) | 73 | –
12 | COc1cc2occ(C(=O)c3ccc4c(c3OC)C=CC(C)(C)O4)c2cc1OC | 92.4 | inhibition [4]: 105%
13 | COc1cc2cc(/C(=N\O)c3ccc4c(c3OC)C=CC(C)(C)O4)oc2cc1OC | 117 | –
14 | CO/N=C(\c1cc2cc(OC)c(OC)cc2o1)c1ccc2c(c1OC)C=CC(C)(C)O2 | 65.6 | –
15 | COc1cc2c(cc1OC)[C@@H]1C(=O)c3ccc4c(c3O[C@@H]1CO2)C=CC(C)(C)O4 | 64 | inhibition (Homo sapiens [2]): Active; inhibition [4]: 94%; inhibition (Homo sapiens [3]): Active
16 | COc1cc2ncnc(C(OC(=O)C3CC3)c3ccc4c(c3OC)C=CC(C)(C)O4)c2cc1OC (centres undefined) | 71.9 | –
17 | COc1cc2nccc(/C(=N\O)c3ccc4c(c3OC)C=CC(C)(C)O4)c2cc1OC | 64 | –

More lines, main results first:

Row | inhibition [1] [%] | Structure (SMILES) | other results
18 | 72.2 | COc1cc2cc(C(OC(C)=O)c3ccc4c(c3OC)C=CC(C)(C)O4)oc2cc1OC (centres undefined) | –
19 | 85 | COc1cc2nccc(C(OC(=O)C3CC3)c3ccc4c(ccn4C)c3)c2cc1OC (centres undefined) | –
20 | 70.6 | COc1cc2cc(/C(=N/O)c3ccc4c(c3OC)C=CC(C)(C)O4)oc2cc1OC | –
21 | 85.3 | COc1ccc(CC(=O)c2ccc3c(c2OC)C=CC(C)(C)O3)cc1OC | –
22 | 86 | COc1cc2nccc(C(=O)c3ccc4c(ccn4C)c3)c2cc1OC | –
23 | 102 | COc1cc2cc(C(O)c3ccc4ncccc4c3)oc2cc1OC (centres undefined) | –
24 | 54.2 | CO/N=C(/c1ccc2c(c1OC)C=CC(C)(C)O2)c1ccnc2cc(OC)c(OC)cc12 | –
25 | 81 | COc1cc2occ(C(OC(C)=O)c3ccc4c(c3OC)C=CC(C)(C)O4)c2cc1OC (centres undefined) | –
26 | 97.2 | COc1cc2nccc(C(OC(C)=O)c3ccc4c(ccn4C)c3)c2cc1OC (centres undefined) | –
27 | 85.5 | COc1cc2nccc(C(NC(=O)C3CC3)c3ccc4c(c3OC)C=CC(C)(C)O4)c2cc1OC (centres undefined) | –
28 | 76 | COc1cc2ccc(C(=O)c3ccc4c(c3OC)C=CC(C)(C)O4)nc2cc1OC | –
29 | 62.2 | COc1cc2nccc(C(OC(C)=O)c3ccc4c(c3OC)C=CC(C)(C)O4)c2cc1OC (centres undefined) | inhibition [4]: 95.4%
30 | 80.5 | COc1cc2nccc(C(OC(=O)C3CC3)c3ccc4ncccc4c3OC)c2cc1OC (centres undefined) | –
31 | 96.4 | CCC(=O)OC(c1ccc2c(c1OC)C=CC(C)(C)O2)c1ccnc2cc(OC)c(OC)cc12 (centres undefined) | –
32 | 82.7 | COc1cc2nccc(C(OC(C)=O)c3ccc4ncccc4c3)c2cc1OC (centres undefined) | –
33 | 81.2 | COc1cc2nccc(C(OC(N)=O)c3ccc4c(c3OC)C=CC(C)(C)O4)c2cc1OC (centres undefined) | –
34 | 53.9 | COc1cc2nccc(C(OC(=O)C3CC3)c3ccc4c(c3OC)C=CC(C)(C)O4)c2cc1OC (centres undefined) | inhibition (Homo sapiens [2]): Active; inhibition [5]: Dose-dependent effect; inhibition [4]: 63.3%; inhibition (Homo sapiens [3]): Active; Activity [6]: <50%; Activity (NCI-H1299): Dose-dependent effect
35 | 68.9 | COc1cc2nccc(C(N)c3ccc4c(c3OC)C=CC(C)(C)O4)c2cc1OC (centres undefined) | –
36 | 71 | COc1cc2ccc(C(OC(=O)C3CC3)c3ccc4c(c3OC)C=CC(C)(C)O4)nc2cc1OC (centres undefined) | –
37 | 66.5 | CO/N=C(/c1cc2cc(OC)c(OC)cc2o1)c1ccc2c(c1OC)C=CC(C)(C)O2 | inhibition [4]: 76.9%
38 | 86 | COc1cc2ccc(C(O)c3ccc4c(c3OC)C=CC(C)(C)O4)nc2cc1OC (centres undefined) | –
39 | 56 | COc1cc2cc(C(OC(C)=O)c3ccc4ncccc4c3)oc2cc1OC (centres undefined) | inhibition [4]: 88%
40 | 67.4 | COc1cc2nccc(C(OC(C)=O)c3ccc4ncccc4c3OC)c2cc1OC (centres undefined) | –
41 | 59.3 | COc1cc2nccc(C(SC(C)=O)c3ccc4c(c3OC)C=CC(C)(C)O4)c2cc1OC (centres undefined) | inhibition [4]: 74%; Activity [6]: <50%; Activity (NCI-H1299): Dose-dependent effect
42 | 115 | COc1cc2cc(C(OC(=O)C3CC3)c3ccc4ncccc4c3)oc2cc1OC (centres undefined) | –
